Literature values, collected in patent US8771972B2 (Saladax Biomedical Inc., priority 2011, dated 2014).

Settings: background statement

Structure (SMILES)	activity of metabolite
C[N+]1([O-])CCN(C2=Nc3cc(Cl)ccc3Nc3ccccc32)CC1 [N-Oxide derivative, Clozapine-N-oxide]	inactive
Clc1ccc2c(c1)N=C(N1CCNCC1)c1ccccc1N2 [N-desmethyl metabolite, N-desmethylclozapine]	limited activity
